Bridges are numbered along the chain shown (N, C = ends). Where no end group is shown, it is not given here. [ ]: non-standard residue; d: D form. 1Nal = N[C@@H](Cc1cccc2ccccc12)C(=O)O; Sar = CNCC(=O)O

What is called EC90 is the point of the concentration-response curve where the effect stands at 90%.

This assay deals with human, bone marrow derived CD34+ cells. Nature of the assay: C/BFU-e assay (erythroid colony formation). It is filed as cell-based. The settings on record: Table 6; colonies 90% of maximum relative to EPO control, 14 days. An excerpt:
EPO-R signaling stimulates the differentiation of bone marrow stem cells into proliferating red blood cell presursors. This assay measures the ability of test peptides to stimulate the proliferation and differentiation of red blood cell precursors from primary human bone marrow pluripotent stem cells.
For this assay, serial dilutions of test peptide are made in IMDM medium (Gibco) supplemented with 10% FBS (Hyclone). […] The methylcellulose and peptide mixture is then vortexed thoroughly. Aliquots (100,000 cells/mL) of human, bone marrow derived CD34+ cells (Poietics/Cambrex) are thawed. The thawed cells are gently added to 0.1 mL of 1 mg/ml DNAse (Stem Cells) in a 50 mL tube. Next, 40-50 mL IMDM medium is added gently to cells: the medium is added drop by drop along the side of the 50 mL tube for the first 10 mL, and then the remaining volume of medium is slowly dispensed along the side of the tube. The cells are then spun at 900 rpm for 20 min, and the media removed carefully by gentle aspiration. The cells are resuspended in 1 ml of IMDM medium and the cell density per mL is counted on hemacytometer slide (10 μL aliquot of cell suspension on slide, and cell density is the average count×10,000 cells/ml). The cells are then diluted in IMDM medium to a cell density of 15,000 cells/mL. A 100 μL of diluted cells is then added to each 1.5 mL methyl cellulose plus peptide sample (final cell concentration in assay media is 1000 cells/mL), and the mixture is vortexed. Allow the bubbles in the mixture to disappear, and then aspirate 1 mL using blunt-end needle. Add 0.25 mL aspirated mixture from each sample into each of 4 wells of a 24-well plate (Falcon brand). Incubate the plated mixtures at 37° C. under 5% CO2 in a humid incubator for 14 days. Score for the presence of erythroid colonies using a phase microscope (5×-10× objective, final magnification of 100×).
EPO-R signaling stimulates the differentiation of bone marrow stem cells into proliferating red blood cell precursors. […]

The substance “peptide dimer of monomers (AcG)GLYACHMGPIT(1-nal)VCQPLR(MeG)K (SEQ ID NO: 2) (Ac-GGLYACHMGPIT[1Nal]VCQPLR[Sar]K; disulfide 6-15 (inferred); not fully specified (residue 1); printed as (AcG)GLYACHMGPIT(1-nal)VCQPLR(MeG)K; also: homodimer, dimer linkage not given here) [Peptide I]” came in with an EC90 of 3 nM.

(Values after patent US8729030B2 (Affymax, Inc., priority 2003, dated 2014).)
